# System: MV-4-11 cells
# Experiment: Gene expression microarray analysis (Affymetrix PrimeView) and GSEA
# Type: cell-based, human
# Design: RFU PODN (11730768_x_at) / Fold change /veh PODN (11730768_x_at) / RFU LINC00158 (11744669_a_at) / Fold change /veh LINC00158 (11744669_a_at) / RFU DUSP10 (11751237_a_at) / Fold change /veh DUSP10 (11751237_a_at) / RFU ID3 (11757404_x_at) / Fold change /veh ID3 (11757404_x_at) / RFU PLEKHG5 (11737974_s_at) / Fold change /veh PLEKHG5 (11737974_s_at) / RFU LRRC4B (11730491_at) / Fold change /veh LRRC4B (11730491_at) / RFU GIMAP4 (11747438_a_at) / Fold change /veh GIMAP4 (11747438_a_at) / RFU KRT8 (11758183_x_at) / Fold change /veh KRT8 (11758183_x_at) / RFU CNN1 (11734310_a_at) / Fold change /veh CNN1 (11734310_a_at) / RFU VPS37D (11726825_at) / Fold change /veh VPS37D (11726825_at) / RFU C10orf10 (11716522_x_at) / Fold change /veh C10orf10 (11716522_x_at) / RFU KIR2DL2 /// KIR2DL4 /// KIR2DL5A /// KIR2DL5B /// KIR2DS1 /// KIR2DS2 /// KIR2DS3 /// KIR2DS4 /// KIR3DL3 /// KIR3DL3 /// KIR3DS1 (11738374_at) / Fold change /veh KIR2DL2 /// KIR2DL4 /// KIR2DL5A /// KIR2DL5B /// KIR2DS1 /// KIR2DS2 /// KIR2DS3 /// KIR2DS4 /// KIR3DL3 /// KIR3DL3 /// KIR3DS1 (11738374_at) / RFU C1QL1 (11718748_at) / Fold change /veh C1QL1 (11718748_at) / RFU TMPRSS4 (11747572_a_at) / Fold change /veh TMPRSS4 (11747572_a_at) / RFU HAMP (11756126_x_at) / Fold change /veh HAMP (11756126_x_at) / RFU RNFT2 (11725882_a_at) / Fold change /veh RNFT2 (11725882_a_at) / RFU NR4A2 (11747474_a_at) / Fold change /veh NR4A2 (11747474_a_at) / RFU ABCC12 (11746883_a_at) / Fold change /veh ABCC12 (11746883_a_at) / RFU TMEM136 (11760407_x_at) / Fold change /veh TMEM136 (11760407_x_at) / RFU CLDN22 /// WWC2 (11732394_at) / Fold change /veh CLDN22 /// WWC2 (11732394_at) / RFU HLA-DPB1 (11760878_x_at) / Fold change /veh HLA-DPB1 (11760878_x_at) / RFU SPINT1 (11716480_a_at) / Fold change /veh SPINT1 (11716480_a_at) / RFU GAP43 (11754022_s_at) / Fold change /veh GAP43 (11754022_s_at) / RFU A4GNT (11735810_at) / Fold change /veh A4GNT (11735810_at) / RFU PRB3 (11715151_x_at) / Fold change /veh PRB3 (11715151_x_at) / RFU TUBB4B (11761932_at) / Fold change /veh TUBB4B (11761932_at) / RFU CAPN14 (11732068_a_at) / Fold change /veh CAPN14 (11732068_a_at) / RFU TMCC2 (11721928_a_at) / Fold change /veh TMCC2 (11721928_a_at) / RFU IRGQ (11745062_a_at) / Fold change /veh IRGQ (11745062_a_at) / RFU FAM174B (11720279_a_at) / Fold change /veh FAM174B (11720279_a_at) / RFU TMPRSS4 (11748680_a_at) / Fold change /veh TMPRSS4 (11748680_a_at) / RFU FAM212B (11763350_a_at) / Fold change /veh FAM212B (11763350_a_at) / RFU PLEKHG5 (11743358_a_at) / Fold change /veh PLEKHG5 (11743358_a_at) / RFU ZSCAN30 (11745921_a_at) / Fold change /veh ZSCAN30 (11745921_a_at) / RFU CMKLR1 (11741424_a_at) / Fold change /veh CMKLR1 (11741424_a_at) / RFU LOC101060620 /// MAPK8IP1 (11723275_at) / Fold change /veh LOC101060620 /// MAPK8IP1 (11723275_at) / RFU SPTSSB (11747773_x_at) / Fold change /veh SPTSSB (11747773_x_at) / RFU PRSS12 (11739890_at) / Fold change /veh PRSS12 (11739890_at) / RFU BIN1 (11741810_x_at) / Fold change /veh BIN1 (11741810_x_at) / RFU WNT11 (11732464_a_at) / Fold change /veh WNT11 (11732464_a_at) / RFU C10orf10 (11716521_a_at) / Fold change /veh C10orf10 (11716521_a_at) / RFU C5orf56 (11738089_at) / Fold change /veh C5orf56 (11738089_at) / RFU CYB561 (11721691_x_at) / Fold change /veh CYB561 (11721691_x_at) / RFU ANKRD19P (11752326_a_at) / Fold change /veh ANKRD19P (11752326_a_at) / RFU OR2T12 /// OR2T33 /// OR2T8 (11738714_s_at) / Fold change /veh OR2T12 /// OR2T33 /// OR2T8 (11738714_s_at) / RFU VCAN (11748164_a_at) / Fold change /veh VCAN (11748164_a_at) / RFU JSRP1 (11732532_at) / Fold change /veh JSRP1 (11732532_at) / RFU KRTAP10-11 (11738290_x_at) / Fold change /veh KRTAP10-11 (11738290_x_at) / RFU MYO3A (11730013_a_at) / Fold change /veh MYO3A (11730013_a_at) / RFU EBF3 (11725865_a_at) / Fold change /veh EBF3 (11725865_a_at) / RFU CAMK2N1 (11719241_x_at) / Fold change /veh CAMK2N1 (11719241_x_at) / RFU C5orf56 (11738088_a_at) / Fold change /veh C5orf56 (11738088_a_at) / RFU OLFML3 (11715873_a_at) / Fold change /veh OLFML3 (11715873_a_at) / RFU LOC100653217 /// NTM (11731650_a_at) / Fold change /veh LOC100653217 /// NTM (11731650_a_at) / RFU MAPK11 (11762145_a_at) / Fold change /veh MAPK11 (11762145_a_at) / RFU FIZ1 (11724087_x_at) / Fold change /veh FIZ1 (11724087_x_at) / RFU OASL (11726364_x_at) / Fold change /veh OASL (11726364_x_at) / RFU SOX15 (11748057_x_at) / Fold change /veh SOX15 (11748057_x_at) / RFU CD79A (11719716_a_at) / Fold change /veh CD79A (11719716_a_at) / RFU HIST1H1D (11736915_at) / Fold change /veh HIST1H1D (11736915_at) / RFU CASKIN2 (11723855_a_at) / Fold change /veh CASKIN2 (11723855_a_at) / RFU LOC730098 (11760151_x_at) / Fold change /veh LOC730098 (11760151_x_at) / RFU OR4N2 (11742367_at) / Fold change /veh OR4N2 (11742367_at) / RFU PRRT2 (11749266_a_at) / Fold change /veh PRRT2 (11749266_a_at) / RFU SNX32 (11753110_a_at) / Fold change /veh SNX32 (11753110_a_at) / RFU CDHR5 (11726645_a_at) / Fold change /veh CDHR5 (11726645_a_at) / RFU RCAN1 (11760418_a_at) / Fold change /veh RCAN1 (11760418_a_at) / RFU FAM167A (11723789_a_at) / Fold change /veh FAM167A (11723789_a_at) / RFU FAM26E (11764081_at) / Fold change /veh FAM26E (11764081_at) / RFU ISYNA1 (11749810_s_at) / Fold change /veh ISYNA1 (11749810_s_at) / RFU ACY1 (11761880_at) / Fold change /veh ACY1 (11761880_at) / RFU 11764098_at / Fold change /veh 11764098_at / RFU SAMD14 (11745864_x_at) / Fold change /veh SAMD14 (11745864_x_at) / RFU NPB (11741838_a_at) / Fold change /veh NPB (11741838_a_at) / RFU TMPRSS6 (11731388_a_at) / Fold change /veh TMPRSS6 (11731388_a_at) / RFU KRTAP10-2 (11738614_at) / Fold change /veh KRTAP10-2 (11738614_at) / RFU ARHGAP8 /// PRR5-ARHGAP8 (11727945_x_at) / Fold change /veh ARHGAP8 /// PRR5-ARHGAP8 (11727945_x_at) / RFU KRTAP5-7 /// NADSYN1 (11734609_at) / Fold change /veh KRTAP5-7 /// NADSYN1 (11734609_at) / RFU RASL12 (11751679_a_at) / Fold change /veh RASL12 (11751679_a_at) / RFU CDKN2B (11736163_a_at) / Fold change /veh CDKN2B (11736163_a_at) / RFU PRF1 (11729649_at) / Fold change /veh PRF1 (11729649_at) / RFU, ZNF638 /// ZNF638-IT1 / Fold change vs veh, ZNF638 /// ZNF638-IT1 / RFU, PANK3 / Fold change vs veh, PANK3 / RFU, SH3YL1 / Fold change vs veh, SH3YL1 / RFU, ZEB2 / Fold change vs veh, ZEB2 / RFU, NRIP1 / Fold change vs veh, NRIP1 / RFU, PTTG1IP / Fold change vs veh, PTTG1IP / RFU, CAPN2 / Fold change vs veh, CAPN2 / RFU, MED14 / Fold change vs veh, MED14 / RFU, SNORA58 / Fold change vs veh, SNORA58 / RFU, C1orf63 / Fold change vs veh, C1orf63 / RFU, LRRFIP1 / Fold change vs veh, LRRFIP1 / RFU, NDUFAF7 / Fold change vs veh, NDUFAF7 / RFU, SLC12A2 / Fold change vs veh, SLC12A2 / RFU, IBTK / Fold change vs veh, IBTK / RFU, ESF1 / Fold change vs veh, ESF1 / Fold change vs veh, TMEM50B / RFU, TAOK1 / Fold change vs veh, TAOK1 / RFU, ACBD3 / Fold change vs veh, ACBD3 / RFU, TMA16 / Fold change vs veh, TMA16 / RFU, RWDD3 / Fold change vs veh, RWDD3 / RFU, BCAT1 / Fold change vs veh, BCAT1 / RFU, EDEM3 / Fold change vs veh, EDEM3 / RFU, TMEM33 / Fold change vs veh, TMEM33 / RFU, WDR75 / Fold change vs veh, WDR75 / RFU, AHCTF1 / Fold change vs veh, AHCTF1 / RFU, TFRC / Fold change vs veh, TFRC / RFU, ZDHHC17 / Fold change vs veh, ZDHHC17 / RFU, NOM1 / Fold change vs veh, NOM1 / RFU, ARL8B / Fold change vs veh, ARL8B / RFU, ZBTB11 / Fold change vs veh, ZBTB11 / RFU, TAMM41 / Fold change vs veh, TAMM41 / RFU, KIAA1704 /// LOC100996395 / Fold change vs veh, KIAA1704 /// LOC100996395 / RFU, ING1 / Fold change vs veh, ING1 / RFU, TRMT61B / Fold change vs veh, TRMT61B / RFU, FUBP3 / Fold change vs veh, FUBP3 / RFU, TP53 / Fold change vs veh, TP53 / RFU, TNKS2 / Fold change vs veh, TNKS2 / RFU, ZFP14 / Fold change vs veh, ZFP14 / RFU, ACTR2 / Fold change vs veh, ACTR2 / RFU, PPP3R1 / Fold change vs veh, PPP3R1 / RFU, PIK3R1 / Fold change vs veh, PIK3R1 / RFU, HNRNPA1 / Fold change vs veh, HNRNPA1 / RFU, RNF170 / Fold change vs veh, RNF170 / RFU, ZNF28 / Fold change vs veh, ZNF28 / RFU, RNGTT / Fold change vs veh, RNGTT / RFU, OGT / Fold change vs veh, OGT / RFU, BRD1 / Fold change vs veh, BRD1 / RFU, MARS / Fold change vs veh, MARS / RFU, ZNF655 / Fold change vs veh, ZNF655 / RFU, FAHD1 / Fold change vs veh, FAHD1 / RFU, BDP1 / Fold change vs veh, BDP1 / RFU, LRRCC1 / Fold change vs veh, LRRCC1 / RFU, ARID1A / Fold change vs veh, ARID1A / RFU, ZNF146 / Fold change vs veh, ZNF146 / RFU, ZNF330 / Fold change vs veh, ZNF330 / RFU, GPN3 / Fold change vs veh, GPN3 / RFU, C9orf123 / Fold change vs veh, C9orf123 / RFU, N4BP2L2 / Fold change vs veh, N4BP2L2 / RFU, ARFIP1 / Fold change vs veh, ARFIP1 / RFU, FAM179B / Fold change vs veh, FAM179B / RFU, BCL10 / Fold change vs veh, BCL10 / RFU, UHRF1BP1L / Fold change vs veh, UHRF1BP1L / RFU, BET1 / Fold change vs veh, BET1 / RFU, CNOT2 / Fold change vs veh, CNOT2 / RFU, ZNF268 / Fold change vs veh, ZNF268 / Fold change vs veh, ZNF507 / RFU, DGCR2 / Fold change vs veh, DGCR2 / RFU, WDSUB1 / Fold change vs veh, WDSUB1 / Fold change vs veh, HSP90B1 /// MIR3652 / RFU, ADSS / Fold change vs veh, ADSS / RFU, GK / Fold change vs veh, GK / RFU, ZNF148 / Fold change vs veh, ZNF148 / RFU, TAF9 / Fold change vs veh, TAF9 / RFU, SLC1A5 / Fold change vs veh, SLC1A5 / RFU, SLMO2 / Fold change vs veh, SLMO2 / RFU, ABCC4 / Fold change vs veh, ABCC4 / RFU, LOC101060439 /// RAP1B / Fold change vs veh, LOC101060439 /// RAP1B / RFU, RFX7 / Fold change vs veh, RFX7 / RFU, GTPBP10 / Fold change vs veh, GTPBP10 / RFU, CNEP1R1 / Fold change vs veh, CNEP1R1 / RFU, BIVM-ERCC5 /// ERCC5 / Fold change vs veh, BIVM-ERCC5 /// ERCC5 / RFU, ILF3 / Fold change vs veh, ILF3 / RFU 11762660_at / Fold change /veh 11762660_at / RFU VCAN (11757783_s_at) / Fold change /veh VCAN (11757783_s_at) / RFU DDX43 (11728927_at) / Fold change /veh DDX43 (11728927_at) / RFU KRT8 (11758188_x_at) / Fold change /veh KRT8 (11758188_x_at) / RFU NKD1 (11759106_at) / Fold change /veh NKD1 (11759106_at) / RFU SRD5A1 (11742802_a_at) / Fold change /veh SRD5A1 (11742802_a_at) / RFU TPSAB1 /// TPSB2 (11721975_s_at) / Fold change /veh TPSAB1 /// TPSB2 (11721975_s_at) / RFU GSTM3 (11746129_a_at) / Fold change /veh GSTM3 (11746129_a_at) / RFU IL23R (11737362_x_at) / Fold change /veh IL23R (11737362_x_at) / RFU TMEM51 (11727254_a_at) / Fold change /veh TMEM51 (11727254_a_at) / RFU PIWIL2 (11732686_x_at) / Fold change /veh PIWIL2 (11732686_x_at) / RFU ORM1 (11744905_x_at) / Fold change /veh ORM1 (11744905_x_at) / RFU CCDC152 (11743942_at) / Fold change /veh CCDC152 (11743942_at) / RFU ECM1 (11717891_a_at) / Fold change /veh ECM1 (11717891_a_at) / RFU IL23R (11748794_a_at) / Fold change /veh IL23R (11748794_a_at) / RFU TNFAIP8L3 (11732012_x_at) / Fold change /veh TNFAIP8L3 (11732012_x_at) / RFU MBOAT4 (11741988_at) / Fold change /veh MBOAT4 (11741988_at) / RFU 11764193_at / Fold change /veh 11764193_at / RFU TMEM53 (11763286_at) / Fold change /veh TMEM53 (11763286_at) / RFU MAGEB2 (11727129_at) / Fold change /veh MAGEB2 (11727129_at) / RFU TMEM200A (11744735_a_at) / Fold change /veh TMEM200A (11744735_a_at) / RFU CCDC152 (11751479_a_at) / Fold change /veh CCDC152 (11751479_a_at) / RFU FAM211A (11726209_a_at) / Fold change /veh FAM211A (11726209_a_at) / RFU RGS16 (11746705_a_at) / Fold change /veh RGS16 (11746705_a_at) / RFU VCAN (11755009_s_at) / Fold change /veh VCAN (11755009_s_at) / RFU RHOB (11743442_s_at) / Fold change /veh RHOB (11743442_s_at) / RFU RGS16 (11720943_a_at) / Fold change /veh RGS16 (11720943_a_at) / RFU RGS16 (11720944_at) / Fold change /veh RGS16 (11720944_at) / RFU, VPS4B / Fold change vs veh, VPS4B / RFU, CREB1 / Fold change vs veh, CREB1 / RFU, DNAJC13 / Fold change vs veh, DNAJC13 / RFU, GNAQ / Fold change vs veh, GNAQ / RFU, CDK5R1 / Fold change vs veh, CDK5R1 / RFU, ZRANB3 / Fold change vs veh, ZRANB3 / RFU, CUL4A / Fold change vs veh, CUL4A / RFU, CCNY / Fold change vs veh, CCNY / RFU, UFL1 / Fold change vs veh, UFL1 / RFU, COG3 / Fold change vs veh, COG3 / RFU, DIAPH2 / Fold change vs veh, DIAPH2 / RFU, SKA2 / Fold change vs veh, SKA2 / RFU, AFF3 / Fold change vs veh, AFF3 / RFU, LMF1 / Fold change vs veh, LMF1 / RFU, IPO11 / Fold change vs veh, IPO11 / RFU, DFFB / Fold change vs veh, DFFB / RFU, FOXP1 / Fold change vs veh, FOXP1 / RFU, CARD8 / Fold change vs veh, CARD8 / RFU, STRN3 / Fold change vs veh, STRN3 / RFU, ADK / Fold change vs veh, ADK / RFU, RASSF2 / Fold change vs veh, RASSF2 / RFU, WIPF1 / Fold change vs veh, WIPF1 / RFU, LARP1B / Fold change vs veh, LARP1B / RFU, RASA1 / Fold change vs veh, RASA1 / RFU, RB1 / Fold change vs veh, RB1 / RFU, PPFIA1 / Fold change vs veh, PPFIA1 / RFU, MAT2A / Fold change vs veh, MAT2A / RFU, CCT5 / Fold change vs veh, CCT5 / RFU, WDR92 / Fold change vs veh, WDR92 / RFU, CUX1 / Fold change vs veh, CUX1 / RFU, TTC7A / Fold change vs veh, TTC7A / RFU, TMEM135 / Fold change vs veh, TMEM135 / RFU, DEPTOR / Fold change vs veh, DEPTOR / RFU, CPM / Fold change vs veh, CPM / RFU, DNAJB6 / Fold change vs veh, DNAJB6 / RFU, CACNA2D3 / Fold change vs veh, CACNA2D3 / RFU, DTX4 / Fold change vs veh, DTX4 / RFU, TFCP2 / Fold change vs veh, TFCP2 / RFU, GMCL1 /// GMCL1P1 / Fold change vs veh, GMCL1 /// GMCL1P1 / RFU, AEBP2 / Fold change vs veh, AEBP2 / RFU, SNHG1 /// SNORD22 /// SNORD25 /// SNORD26 /// SNORD27 /// SNORD28 /// SNORD29 /// SNORD31 / Fold change vs veh, SNHG1 /// SNORD22 /// SNORD25 /// SNORD26 /// SNORD27 /// SNORD28 /// SNORD29 /// SNORD31 / Fold change (Aza/veh), C12orf56 (ProbeSet 11735607_a_at) / Fold change (ACY-1035/veh), C12orf56 (ProbeSet 11735607_a_at) / Fold change (Aza/veh), FGFR1OP (ProbeSet 11751329_s_at) / Fold change (ACY-1035/veh), FGFR1OP (ProbeSet 11751329_s_at) / Fold change (Aza/veh), VPS36 (ProbeSet 11739960_a_at) / Fold change (ACY-1035/veh), VPS36 (ProbeSet 11739960_a_at) / RFU SYPL1 (11715823_x_at) / Fold change /veh SYPL1 (11715823_x_at) / RFU IGFBP7 (11715501_s_at) / Fold change /veh IGFBP7 (11715501_s_at) / RFU REEP3 (11722064_at) / Fold change /veh REEP3 (11722064_at) / RFU IGLL1 (11728026_x_at) / Fold change /veh IGLL1 (11728026_x_at): dose or concentration left out as unconfirmed
# Details: ProbeSet 11716865_a_at; LIST B
compound,measurement,value
Nc1ccc(-c2cccs2)cc1NC(=O)c1ccc2c(c1)cc(C1CC1)n2CCN1CCOCC1 [ACY-1035],"RFU, SLC1A5",252.35 RFU

# Reference: paper PMC5218480 (PLoS ONE, 2017)
